Consider 3 compounds from ChEMBL document CHEMBL6134888, “Challenging the "Undruggable"─Targeting STAT3 but Identifying Potent TrkA-Targeted Inhibitors” (J Med Chem, 2025).

Where only a bound is given, the exact number is not on record here.

A short description of data set [1]: Apparent permeability of compound across apical to basolateral side in human Caco-2 cells. Type of data set: ADME, cell-based.
The target in data set [2] is T1, Tyrosine-protein kinase JAK2 (Homo sapiens, UniProt O60674). Nature of the data set: Inhibition of JAK2 (unknown origin) by Z-LYTE Kinase assay.
T1 sequence (O60674 whole entry): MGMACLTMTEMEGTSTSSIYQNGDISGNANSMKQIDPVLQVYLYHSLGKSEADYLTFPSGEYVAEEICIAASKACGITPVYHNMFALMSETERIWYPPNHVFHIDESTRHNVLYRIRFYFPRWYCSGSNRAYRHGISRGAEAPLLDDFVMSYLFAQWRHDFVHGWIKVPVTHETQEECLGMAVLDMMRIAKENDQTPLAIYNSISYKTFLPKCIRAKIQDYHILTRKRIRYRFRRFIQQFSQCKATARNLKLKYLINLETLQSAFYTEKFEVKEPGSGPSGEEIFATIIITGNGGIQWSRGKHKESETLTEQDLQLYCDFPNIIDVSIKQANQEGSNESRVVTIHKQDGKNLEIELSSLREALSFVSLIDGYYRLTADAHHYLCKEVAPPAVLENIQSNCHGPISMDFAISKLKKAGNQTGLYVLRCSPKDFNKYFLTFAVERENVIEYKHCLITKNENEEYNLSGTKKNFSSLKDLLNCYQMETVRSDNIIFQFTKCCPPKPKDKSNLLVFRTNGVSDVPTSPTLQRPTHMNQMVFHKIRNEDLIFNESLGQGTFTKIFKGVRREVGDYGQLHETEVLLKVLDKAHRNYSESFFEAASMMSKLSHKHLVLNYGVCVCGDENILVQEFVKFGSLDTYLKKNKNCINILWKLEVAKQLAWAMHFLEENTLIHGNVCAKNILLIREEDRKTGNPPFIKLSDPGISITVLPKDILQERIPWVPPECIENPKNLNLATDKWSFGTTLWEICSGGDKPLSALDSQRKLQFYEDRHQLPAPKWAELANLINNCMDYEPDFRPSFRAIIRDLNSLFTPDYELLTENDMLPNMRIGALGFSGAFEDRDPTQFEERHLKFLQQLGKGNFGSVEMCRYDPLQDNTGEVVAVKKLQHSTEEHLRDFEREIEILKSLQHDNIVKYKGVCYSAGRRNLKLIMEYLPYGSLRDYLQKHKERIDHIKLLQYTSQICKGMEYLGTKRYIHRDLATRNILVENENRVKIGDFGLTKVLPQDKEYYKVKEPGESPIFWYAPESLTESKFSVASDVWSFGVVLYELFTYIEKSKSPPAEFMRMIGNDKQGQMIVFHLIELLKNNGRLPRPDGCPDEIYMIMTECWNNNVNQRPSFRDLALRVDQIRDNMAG
Data set [3] in a line: Plasma protein binding in human. Type of data set: ADME, cell-free. Particulars: read-out: PPB (converted).
A short description of data set [4]: Metabolic stability in human liver microsome assessed as intrinsic clearance measured up to 60 mins by HPLC-MS/MS analysis. Type of data set: ADME. As to conditions: liver microsomes, read-out: CLH.
A short description of data set [5]: Metabolic stability in human liver microsome assessed as half life measured up to 60 mins by HPLC-MS/MS analysis. In kind it is ADME. As to conditions: liver microsomes. In general terms: Liver microsomes are a subcellular fraction often used to study metabolism.
Data set [6] concerns the target BDNF/NT-3 growth factors receptor (Homo sapiens, UniProt Q16620). The data set is described as follows: Binding affinity to TRKB (unknown origin) assessed as dissociation constant by KINOMEscan assay.
Data set [7] has as its system LS174T. Nature of the data set: Cytotoxicity against human LS174T cells assessed as cell viability at 100 uM incubated for 72 hrs by resazurin based analysis relative to control. Particulars: read-out: Activity. In kind it is functional. Background: Alamar Blue is a resazurin reagent that responds to reducing activity.
The target in data set [8] is T2, Proto-oncogene tyrosine-protein kinase Src (Homo sapiens, UniProt P12931). Nature of the data set: Inhibition of SRC (unknown origin) by Z-LYTE Kinase assay.
T2 sequence (P12931 2-536 limits assumed): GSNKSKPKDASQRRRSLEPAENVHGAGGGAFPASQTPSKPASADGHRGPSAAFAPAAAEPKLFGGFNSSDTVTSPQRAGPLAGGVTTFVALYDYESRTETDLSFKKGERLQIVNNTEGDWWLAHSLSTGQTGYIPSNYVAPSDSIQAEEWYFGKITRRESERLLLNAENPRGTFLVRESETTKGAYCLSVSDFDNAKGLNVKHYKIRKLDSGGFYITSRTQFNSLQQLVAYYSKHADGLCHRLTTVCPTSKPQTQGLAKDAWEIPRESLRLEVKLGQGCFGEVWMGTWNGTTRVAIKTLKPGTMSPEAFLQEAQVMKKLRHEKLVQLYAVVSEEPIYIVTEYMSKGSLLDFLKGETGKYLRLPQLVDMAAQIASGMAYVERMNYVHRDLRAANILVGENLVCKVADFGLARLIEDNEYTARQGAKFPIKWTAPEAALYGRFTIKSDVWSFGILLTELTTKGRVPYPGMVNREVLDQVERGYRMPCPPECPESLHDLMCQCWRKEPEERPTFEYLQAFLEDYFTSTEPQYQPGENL
In data set [9] the test system is MDA-MB-231. Nature of the data set: Cytotoxicity against human MDA-MB-231 cells assessed as cell viability at 100 uM incubated for 72 hrs by resazurin based analysis relative to control. Type of data set: functional. As to conditions: read-out: Activity.
Data set [10] has as its target T3, High affinity nerve growth factor receptor (Homo sapiens, UniProt P04629). The data set is described as follows: Binding affinity to TRKA (unknown origin) assessed as dissociation constant by KINOMEscan assay.
Data set [11] relates to LS174T. Nature of the data set: Cytotoxicity against human LS174T cells assessed as effect on cell viability incubated for 72 hrs by resazurin based analysis.
Data set [12] addresses MAP kinase-activated protein kinase 2 (Homo sapiens, UniProt P49137). The data set is described as follows: Inhibition of MK2 (unknown origin).
Data set [13] relates to MDA-MB-231. Nature of the data set: Cytotoxicity against human MDA-MB-231 cells assessed as effect on cell viability incubated for 72 hrs by resazurin based analysis. Particulars: MDA-MB-231, 72 h.
Data set [14] has as its target T2, Proto-oncogene tyrosine-protein kinase Src. Nature of the data set: Binding affinity to SRC (unknown origin) assessed as dissociation constant.
Data set [15] deals with T3, High affinity nerve growth factor receptor. Nature of the data set: Binding affinity to TRKA (unknown origin) assessed as dissociation constant.
The target in data set [16] is T4, Serine/threonine-protein kinase Nek2 (Homo sapiens, UniProt P51955).
T4 sequence (P51955 whole entry): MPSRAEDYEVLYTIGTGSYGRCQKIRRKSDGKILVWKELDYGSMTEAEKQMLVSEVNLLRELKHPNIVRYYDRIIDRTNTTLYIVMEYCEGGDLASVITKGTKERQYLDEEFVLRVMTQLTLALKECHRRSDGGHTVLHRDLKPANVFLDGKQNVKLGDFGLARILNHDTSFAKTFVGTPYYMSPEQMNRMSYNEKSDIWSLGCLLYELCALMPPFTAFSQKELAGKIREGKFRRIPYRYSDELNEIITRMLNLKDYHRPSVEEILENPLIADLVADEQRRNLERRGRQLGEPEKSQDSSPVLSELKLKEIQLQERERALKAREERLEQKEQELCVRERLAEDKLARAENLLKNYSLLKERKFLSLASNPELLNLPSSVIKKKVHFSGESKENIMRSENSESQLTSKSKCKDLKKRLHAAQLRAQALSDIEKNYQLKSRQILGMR
Nature of the data set: Inhibition of NEK2 (unknown origin).

Data set [17] has as its target T5, Receptor-type tyrosine-protein kinase FLT3 (Homo sapiens, UniProt P36888).
T5 sequence (P36888 whole entry): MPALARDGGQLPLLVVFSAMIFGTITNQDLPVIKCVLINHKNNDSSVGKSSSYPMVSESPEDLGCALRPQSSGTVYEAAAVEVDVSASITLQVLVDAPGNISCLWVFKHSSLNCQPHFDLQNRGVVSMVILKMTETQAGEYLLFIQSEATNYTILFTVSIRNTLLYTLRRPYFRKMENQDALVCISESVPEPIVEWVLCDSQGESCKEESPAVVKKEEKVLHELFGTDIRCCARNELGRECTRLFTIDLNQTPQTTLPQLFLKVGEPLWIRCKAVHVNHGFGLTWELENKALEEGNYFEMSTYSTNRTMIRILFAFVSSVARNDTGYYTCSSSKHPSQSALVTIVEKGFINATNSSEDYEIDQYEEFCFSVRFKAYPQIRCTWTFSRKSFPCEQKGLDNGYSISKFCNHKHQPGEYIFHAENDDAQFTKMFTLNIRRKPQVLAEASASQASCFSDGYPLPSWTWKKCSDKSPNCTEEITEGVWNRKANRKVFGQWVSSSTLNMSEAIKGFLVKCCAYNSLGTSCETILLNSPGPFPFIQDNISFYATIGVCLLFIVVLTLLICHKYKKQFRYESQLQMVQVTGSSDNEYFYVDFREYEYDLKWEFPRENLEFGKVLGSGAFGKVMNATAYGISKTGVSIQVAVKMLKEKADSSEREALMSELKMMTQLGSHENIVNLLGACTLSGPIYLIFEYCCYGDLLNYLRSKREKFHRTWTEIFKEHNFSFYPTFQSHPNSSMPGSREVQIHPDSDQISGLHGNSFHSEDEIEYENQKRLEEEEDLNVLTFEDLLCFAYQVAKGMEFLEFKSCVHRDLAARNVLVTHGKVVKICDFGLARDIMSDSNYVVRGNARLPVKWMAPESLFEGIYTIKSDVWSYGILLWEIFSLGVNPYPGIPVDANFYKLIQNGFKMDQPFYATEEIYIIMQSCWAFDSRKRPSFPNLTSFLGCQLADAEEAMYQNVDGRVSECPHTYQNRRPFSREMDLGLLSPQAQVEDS
Nature of the data set: Inhibition of FLT3 (unknown origin).

Data set [18] concerns the target T1, Tyrosine-protein kinase JAK2. Nature of the data set: Binding affinity to JAK2 (unknown origin) assessed as dissociation constant.
The next data set has as its system KM12. Nature of the data set: cells. Particulars: Homo sapiens, KM12, 72 h.
Data set [19] addresses Tyrosine-protein kinase ABL1 (Homo sapiens, UniProt P00519). Nature of the data set: Binding affinity to ABL1 (unknown origin) assessed as dissociation constant.

T3 sequence (P04629 whole entry): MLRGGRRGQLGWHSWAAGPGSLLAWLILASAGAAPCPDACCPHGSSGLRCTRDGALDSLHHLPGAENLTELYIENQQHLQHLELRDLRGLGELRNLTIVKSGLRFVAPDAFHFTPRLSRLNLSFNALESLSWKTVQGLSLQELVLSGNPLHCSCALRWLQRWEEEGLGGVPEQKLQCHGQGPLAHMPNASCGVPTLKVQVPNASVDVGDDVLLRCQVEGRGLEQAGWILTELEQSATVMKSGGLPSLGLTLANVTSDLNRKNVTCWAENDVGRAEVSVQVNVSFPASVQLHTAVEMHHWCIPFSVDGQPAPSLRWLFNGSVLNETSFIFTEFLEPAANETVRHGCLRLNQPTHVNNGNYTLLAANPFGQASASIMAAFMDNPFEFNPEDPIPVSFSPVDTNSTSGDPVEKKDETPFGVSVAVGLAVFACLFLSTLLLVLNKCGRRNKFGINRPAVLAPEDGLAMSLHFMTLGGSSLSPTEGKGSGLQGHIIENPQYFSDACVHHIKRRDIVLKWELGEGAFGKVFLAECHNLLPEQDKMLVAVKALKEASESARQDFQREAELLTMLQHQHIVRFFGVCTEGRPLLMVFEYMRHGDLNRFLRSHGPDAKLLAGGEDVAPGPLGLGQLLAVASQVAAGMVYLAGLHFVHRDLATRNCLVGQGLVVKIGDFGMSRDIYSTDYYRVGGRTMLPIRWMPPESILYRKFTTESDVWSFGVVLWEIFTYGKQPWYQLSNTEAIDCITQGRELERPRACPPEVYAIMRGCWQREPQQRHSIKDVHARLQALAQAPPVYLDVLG
BDNF/NT-3 growth factors receptor, sequence (Q16620 whole entry): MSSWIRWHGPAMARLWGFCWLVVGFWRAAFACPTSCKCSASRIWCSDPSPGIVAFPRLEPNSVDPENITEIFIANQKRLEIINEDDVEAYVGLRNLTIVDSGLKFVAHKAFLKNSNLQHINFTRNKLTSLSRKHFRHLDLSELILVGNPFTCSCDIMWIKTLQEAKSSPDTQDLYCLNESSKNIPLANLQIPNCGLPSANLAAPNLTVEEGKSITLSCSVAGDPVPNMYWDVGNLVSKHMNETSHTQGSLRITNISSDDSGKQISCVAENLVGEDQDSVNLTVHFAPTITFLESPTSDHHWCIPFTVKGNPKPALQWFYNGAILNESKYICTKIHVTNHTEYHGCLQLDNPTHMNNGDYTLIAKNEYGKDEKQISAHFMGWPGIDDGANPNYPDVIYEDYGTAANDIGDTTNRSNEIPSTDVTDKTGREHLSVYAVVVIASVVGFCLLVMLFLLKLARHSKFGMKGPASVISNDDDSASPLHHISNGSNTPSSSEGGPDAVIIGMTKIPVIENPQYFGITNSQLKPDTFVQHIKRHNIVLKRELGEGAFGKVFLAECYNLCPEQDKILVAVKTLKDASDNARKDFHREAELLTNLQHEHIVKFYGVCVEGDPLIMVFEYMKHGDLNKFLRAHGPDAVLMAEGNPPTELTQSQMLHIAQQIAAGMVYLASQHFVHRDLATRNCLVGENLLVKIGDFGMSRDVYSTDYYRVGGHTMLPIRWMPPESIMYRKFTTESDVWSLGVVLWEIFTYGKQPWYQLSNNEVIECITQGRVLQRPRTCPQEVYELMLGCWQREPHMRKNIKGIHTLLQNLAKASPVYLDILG
Tyrosine-protein kinase ABL1, sequence (P00519 whole entry): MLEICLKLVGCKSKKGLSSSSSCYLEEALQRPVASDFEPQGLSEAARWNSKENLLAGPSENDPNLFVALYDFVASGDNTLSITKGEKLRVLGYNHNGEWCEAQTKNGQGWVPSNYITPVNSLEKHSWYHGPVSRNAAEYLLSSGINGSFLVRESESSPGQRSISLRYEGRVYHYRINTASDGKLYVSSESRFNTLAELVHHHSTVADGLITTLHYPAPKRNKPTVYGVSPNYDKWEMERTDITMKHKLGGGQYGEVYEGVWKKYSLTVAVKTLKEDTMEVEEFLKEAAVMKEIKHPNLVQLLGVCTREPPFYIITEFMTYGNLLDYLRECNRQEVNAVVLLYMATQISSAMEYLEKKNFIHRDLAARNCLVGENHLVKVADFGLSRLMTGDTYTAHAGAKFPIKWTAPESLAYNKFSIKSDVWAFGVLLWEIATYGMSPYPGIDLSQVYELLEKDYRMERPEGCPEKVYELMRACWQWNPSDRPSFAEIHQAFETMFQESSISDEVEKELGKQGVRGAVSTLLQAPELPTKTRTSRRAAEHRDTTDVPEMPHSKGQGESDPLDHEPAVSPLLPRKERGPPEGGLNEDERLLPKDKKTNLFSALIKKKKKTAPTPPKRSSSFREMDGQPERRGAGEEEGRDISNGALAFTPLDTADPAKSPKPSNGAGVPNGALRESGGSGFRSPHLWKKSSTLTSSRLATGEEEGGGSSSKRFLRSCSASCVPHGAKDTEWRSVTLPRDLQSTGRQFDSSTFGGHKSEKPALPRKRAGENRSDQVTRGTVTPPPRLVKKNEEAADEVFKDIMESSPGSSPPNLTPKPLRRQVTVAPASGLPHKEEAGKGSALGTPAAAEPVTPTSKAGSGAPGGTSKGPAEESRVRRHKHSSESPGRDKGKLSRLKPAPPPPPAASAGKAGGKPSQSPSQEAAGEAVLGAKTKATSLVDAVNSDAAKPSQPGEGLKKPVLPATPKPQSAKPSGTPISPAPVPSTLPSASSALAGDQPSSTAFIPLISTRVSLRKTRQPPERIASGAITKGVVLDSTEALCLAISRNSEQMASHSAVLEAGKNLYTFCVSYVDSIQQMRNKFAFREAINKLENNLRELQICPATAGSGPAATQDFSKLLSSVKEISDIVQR
MAP kinase-activated protein kinase 2, sequence (P49137 whole entry): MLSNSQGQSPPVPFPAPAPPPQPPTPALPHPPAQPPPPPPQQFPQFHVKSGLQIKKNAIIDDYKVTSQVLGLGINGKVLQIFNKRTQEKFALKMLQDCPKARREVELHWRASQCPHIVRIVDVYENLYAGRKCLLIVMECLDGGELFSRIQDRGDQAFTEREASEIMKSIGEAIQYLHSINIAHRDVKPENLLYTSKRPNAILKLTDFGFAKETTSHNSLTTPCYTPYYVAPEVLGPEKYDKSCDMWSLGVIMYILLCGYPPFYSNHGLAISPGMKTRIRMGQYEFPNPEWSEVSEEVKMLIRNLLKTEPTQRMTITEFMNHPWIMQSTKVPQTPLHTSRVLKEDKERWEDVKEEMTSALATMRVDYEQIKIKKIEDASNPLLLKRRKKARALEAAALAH
Description for KM12: Cytotoxicity against human KM12 cells assessed as inhibition of cell viability incubated for 72 hrs by resazurin based analysis

Take `CC(=O)Nc1cccc(-c2cnc(N)c(N[C@H](C)c3ccccc3)n2)c1`: the Papp A→B – broadly, how fast a substance crosses the layer from the apical side – in data set [1] came to 8 ×10⁻⁶ cm/s. Further, in data set [2], half-maximal inhibition (IC50) was put at 177 nM. Besides, in data set [3], the fraction unbound was 0.043. The microsomal CLint in data set [4] amounted to 66.2 µL/min/mg. For the same compound, the half-life (in general, how long it takes for the measured level to halve) in data set [5] stood at 1.75 h.

Regarding `CC(Nc1nc(-c2cccnc2)cnc1N)c1ccccc1` (racemic), the Kd (in general, the free concentration of one partner at which half of the binding sites on the other are occupied at equilibrium, for simple one-to-one binding) in [6] amounted to 180 nM. Besides, the viability at 100 µM in the data set with LS174T [7] turned out to be 83%; with MDA-MB-231 [9] it was 43%. Also, the IC50 (in general, the concentration at which inhibition is half-maximal) is 663 nM in data set [2] and 4520 nM in data set [8].

As for `CC(Nc1nc(-c2cccc(N(C)C)c2)cnc1N)c1ccccc1` (racemic), the Kd in data set [6] came out at 150 nM; in data set [10], 52 nM; in [14], 640 nM; in [15] it was 36 nM; in [18], 1100 nM; in data set [19], 5300 nM. Moreover, the IC50 was more than 10000 nM with LS174T [11]; 750 nM in [12]; more than 10000 nM in the data set with MDA-MB-231 [13]; 870 nM in data set [16]; 70 nM in [17]; less than 300 nM in the data set with KM12. Further, the fraction unbound in data set [3] was 0.004. Besides, the microsomal CLint in data set [4] was found to be 177 µL/min/mg. Moreover, the half-life in data set [5] was found to be 0.653 h.
